Like-named read-outs stand apart in the source and are kept apart here.
Tests used:
[1] = tested on: individuals with MCI or dementia; settings: cited from earlier work; for effect in mild cognitive impairment (reports): individuals with MCI
[2] = tested on: patients with substance addiction; settings: psychostimulants alone; cited from earlier work
[3] = tested on: patients with substance addiction; assay: Treatment of addictions, clinical observation; type: in vivo, human; settings: person; dexamphetamine alone over 6 months
Description: Addiction to amphetamines poses a number of unique challenges.

[4] = tested on: patients with an eating disorder and ADHD; assay: Treatment of eating disorders, clinical observation; settings: person
Description: The use of sodium valproate at low dose levels can then be titrated to a level that does effectively control these thoughts. This may or may not be at the therapeutic dose used in the treatment of bipolar disorder.

[5] = tested on: adults with ADHD; settings: for group outcome of combination therapy: adults with ADHD
Method: In the clinical setting a number of adults with ADHD experienced a combination therapy of stimulant medication (dexamphetamine) in combination with sodium valproate (VPA). The initial dosages used were from 15 to 70 mg/day of dexamphetamine and from 100 to 700 mg/day of VPA (Epilim) (=approximately 2 to 10 mg/kg/day).
The determination of the dose for the dexamphetamine was undertaken in a clinical sensitive open label manner. The dose was titrated upwards dependent on the clinical response and the freedom from side-effects. The dose range was between 15 and 70 mg a day. The frequency of the dosing also varied dependent upon the clinical response. The usual dose interval was between two to four hours. This dosing adjustment took place prior to the commencement of the sodium valproate. The sodium valproate medication was initiated once a day at 50 mg tablet or elixir and titrated upwards dependent on response, but not more than one increase every three days. The dose was given as a once or twice a day regime. During the titration phase, if clinically possible, no other adjustments to the pharmacotherapy were undertaken.

[6] = tested on: individuals with developmental dyspraxia / poor coordination; assay: Treatment of developmental dyspraxia, clinical observation; type: in vivo, human; settings: person, ADHD
Description: Many of the individuals treated at this clinic, with a diagnosis of ADHD and/or pervasive development disorder such Asperger's Syndrome or autism also present with symptoms consistent with a diagnosis of a developmental coordination disorder. They are often described as ‘unco’ (unco-ordinated) by their peers and experience victimization, poor self-esteem and frustration as a consequence of their poor coordination. […] Individuals have described a sense of having more time to coordinate movements and to understand and integrate their own activity appropriately within a team sport such as soccer, which has previously eluded them. Individuals have felt frustration at being able to practise repeatedly an activity or skill only to be unable to put it into practice when required, within the play of a match. It is proposed that individuals were previously unable to process and plan their own coordination but remain aware of the general activity in which they were participating.

[7] = tested on: patients with an eating disorder and ADHD; settings: double-blind studies; effects thought only short-lived; cited from earlier work
[8] = in vivo; cited from earlier work
[9] = tested on: mood stabilisation or epileptic symptoms or events; settings: cited from earlier work; for Minimum Dose/day effective for mood stabilisation or treatment of epileptic symptoms or events: usual minimum anti-convulsant dose per day
[10] = tested on: Parkinson's disease patient; assay: Parkinson's disease clinical example with infrared eye tracking; type: in vivo, human; settings: 12.5 mg phenytoin
Description: Clinical example person with a ten-year history of Parkinson's disease. Moderate to severe motor symptoms with muscle rigidity, resting tremor, brady-[…] slowing of speech. No evidence of dementia or depression. […] An enhanced initiation of movement. Also described an improved perception of efficiency in thought and action. No evidence of loss of efficacy of medication. Using infrared eye tracking technology it was noted that the fixations and […] movements were enhanced after treatment. Measurements were undertaken both whilst silent and speaking with and without eye contact with the investigator. Based on these investigations in Parkinson's disease and also in mild cognitive impairment and dementia we consider that condition is described as Parkinson plus diseases, including multiple system atrophy (MSA), progressive supranuclear palsy (PSP), corticobasal degeneration (CBD), and dementia with Lewy bodies (DLB)s may also benefit from the addition of a low dose AED with and without a psychostimulant.

[11] = tested on: individuals with MCI or dementia; assay: Mild cognitive impairment and dementia, clinical cases (Developmental Eye Movement test, Alzheimer's Quick Test); type: in vivo, human; settings: person
Description: A married person with a history of good cognitive functioning until last 4-5 yrs when noted by both their spouse and themself to becoming increasingly socially withdrawn primarily because of the difficulty in listening without distraction during social interaction, no known childhood or adult history of prior attentional or impulsive disorders. It has been clinically observed by the inventor that individuals treated with low dose antiepileptic were enhanced in their ability to discriminate irrelevant from the relevant sound was enhanced. […] On ceasing the medication there was an initial improvement again over the preceding 3 to 7 days followed by a loss of the therapeutic effects and returned to their pre-medication function. On the ressumption of the 12.5 mg phenytoin there was a return of the improved function. On this second occasion they were more aware of the benefits and also the gradual return of the detrimental clinic effects. During the clinical assessment it was noted that they had more flexibility in their conversation and more natural use of non-verbal cues, there was also enhancement of their egocentric gaze. […] These benefits were also noted by their spouse. […] Again these medications were ceased resulting in a loss of associated benefits. With each trial of medication they became more apparent to the patient and their spouse of the benefits of the therapy. They attempted whilst not taking the medication to communicate and follow the conversation in a way that they had been able to whilst on treatment. They found when attempting to do so they became mentally exhausted and unable to sustain the effort required for the interaction. The improvements noted clinically and also recorded using the Developmental Eye Movement test and a measure of parietal function the Alzheimer's Quick Test. Married person diagnosed with fronto-temporal dementia. they had been assessed by neuropsychologist, and geriatrician and psychiatrist to confirm this diagnosis. […] They then relied on others to make decisions for […]. They had gradually become socially disengaged finding such interactions distressing and demanding. […] Despite ongoing difficulties of word finding they were able to socially interact more spontaneously than they had done for many years. And have confidence in areas of conversation that they previously would have avoided. […] On two occasions the medication was withdrawn and then reintroduced, due to the experimental nature of treatment and concern that there might be a significant placebo effect. […] Following the subsequent reduction there was a return of the improvement previously noted.

[12] = tested on: adherence to medication regime; settings: person, anxiety and depression, no ADHD; 25 mg phenytoin
Description: As a result, taking medication becomes an automatic activity which doesn't require a high level of attention and motivation.
The individual experiences an improvement in the ability to efficiently and effectively attend to a task in hand, without also needing to expend extra cognitive effort to remember which medication to take and at what times.

[13] = tested on: individual not meeting the full criteria for ADHD; assay: Subthreshold ADHD, clinical case (Example 21); type: in vivo, human; settings: person; topiramate 12.5 mg daily added to dexamphetamine 2.5 mg daily
[14] = fronto-temporal dementia, 25 mg phenytoin

CCN(C)C(=O)Oc1cccc([C@H](C)N(C)C)c1 [Rivastigmine]
effect in mild cognitive impairment (reports) [1]: failed to stop or slow progression to Alzheimer's disease or improve cognitive function

C[C@H](N)Cc1ccccc1 [dexamphetamine]
use alone in treatment of amphetamine and cocaine addiction [2]: unhelpful | stability and functional benefit (case) [3]: not noted

COC(=O)C(c1ccccc1)C1CCCCN1 (stereo not shown) [methylphenidate]
clinical outcome (case) ([4]; anorexia nervosa, ADHD, methylphenidate, 45 mg extended release): inconsistent | clinical outcome (case) ([5]; adult female, ADHD, anorexia nervosa bulimic subtype, methylphenidate alone): reasonable improvement | clinical outcome (case) ([5]; person 120 kg, ADHD, methylphenidate 120 mg per day alone): Remain disorganized and inconsistent with taking medication | clinical outcome (case) ([5]; person, ADHD, methylphenidate 55 mg): improvement in their symptoms of impaired attention and concentration | clinical outcome (case) ([5]; person, anorexia nervosa, ADHD, methylphenidate alone): inconsistent | clinical outcome (case) ([6]; autism, developmental dyspraxia, methylphenidate max 95 mg daily): Limited improvement with poor compliance | effect on bulimic symptoms [7]: suppression of bulimic symptoms | duration of action [8]: 2 to 4 h

COc1cc2c(cc1OC)C(=O)C(CC1CCN(Cc3ccccc3)CC1)C2 (stereo not shown) [Donepezil]
side effects in MCI (reports) ([1]; human, in vivo): significant side effects | effect in mild cognitive impairment (reports) [1]: only minor, short-term benefits

O=C1NC(=O)C(c2ccccc2)(c2ccccc2)N1 [Phenytoin]
Minimum Dose/day effective for mood stabilisation or treatment of epileptic symptoms or events [9]: 200 mg | course of benefit on continued dosing ([5]; 50 mg phenytoin dose with dexamphetamine, many clinical situations): loss of benefit of the therapy over the proceeding weeks and months | clinical outcome (case) ([5]; adult female, phenytoin 50 mg added to sodium valproate 100 mg and methylphenidate): Pervasive and robust psychosocial improvement | group outcome of combination therapy ([5]; Methylphenidate 40 mg/d, Valproate 100 mg/d, Phenytoin 50 mg/d): successfully treated | group outcome of combination therapy ([5]; dexamphetamine 20-45 mg/d, Valproate 100-400 mg/d, Phenytoin 12.5-50 mg/d): successfully treated | group outcome of combination therapy ([5]; dexamphetamine 20-75 mg/d with Phenytoin 1-75 mg/d): successfully treated | group outcome of combination therapy ([5]; methylphenidate 15-105 mg/d with Phenytoin 25-50 mg/d): successfully treated | clinical outcome (case) ([5]; person, ADHD, phenytoin 30 mg added to dexamphetamine): improvement in ability to read and sustain enjoyable conversation | clinical outcome (case) ([5]; person, 12.5 mg phenytoin added to sodium valproate 100 mg and dexamphetamine): Significant improvement in ability to maintain egocentric eye gaze and cognition | clinical outcome (case) ([5]; person, 50 mg phenytoin added to methylphenidate 120 mg per day): improved cognition with increased confidence in interpersonal relationships | clinical outcome (case) ([5]; person, phenytoin 20 mg per day added to sodium valproate and dexamphetamine): further improvement of the sequencing and organisation of thoughts | clinical outcome (case) ([5]; person, phenytoin 50 mg later 25 mg added to dexamphetamine and sodium valproate 200 mg): immediate improvement of stability of affect and clarity of thinking | clinical outcome (case) ([6]; phenytoin 25 mg added to dexamphetamine 25 mg, atomexetine 60 mg, sodium valproate 150 mg): improvement in coordination | fixations and saccadic eye movements after treatment ([10]; infrared eye tracking): enhanced | clinical outcome (case) ([10]; person, ten-year Parkinson's disease): improved verbal fluency, enhanced and less effortful social connection and eye contact | time to noted improvement ([10]; person): 2 to 3 days | clinical outcome (case) [11, 14]: remarkable improvement in their cognitive functioning | rapid automatic naming and Alzheimer's Quick Test (AQT) [11, 14]: significant improvement in their functioning | clinical outcome (case) ([11]; social withdrawal, phenytoin 12.5 mg daily): able to socially interact in a more meaningful way | clinical outcome (case) ([11]; phenytoin 10 mg added to low dose sodium valproate): more robust improvement on either medication alone | clinical outcome (case) ([11]; phenytoin 50 mg for two weeks): loss of the therapeutic benefit and general impairment | clinical outcome (case) ([11]; phenytoin increased to 25 mg, over 6 to 8 weeks): loss of the benefits | clinical outcome (case) [12]: improved self organisation and ability to plan ahead without effort

CC1(C)O[C@@H]2[C@@H](CO[C@@]3(COS(N)(=O)=O)OC(C)(C)O[C@@H]23)O1 [Topiramate, 2,3:4,5-Bis-O-(1-methylethylidene)-beta-D-fructopyranose sulfamate]
target dose for controlling epileptic seizures ([9]; in vivo): 100 to 500 mg/day | Minimum Dose/day effective for mood stabilisation or treatment of epileptic symptoms or events [9]: 100 mg | clinical outcome (case) ([4]; 25 mg topiramate added to 45 mg extended release methylphenidate): improved organisation, enhanced interpersonal functioning, improved cognition and able to sustain egocentric eye gaze | group outcome of combination therapy ([5]; dexamphetamine 30-80 mg/d with Topiramate 12.5-50 mg/d): successfully treated | group outcome of combination therapy ([5]; median 40 mg/d Dexamphetamine, 120 mg/d Sodium Valproate, 25 mg/d Topiramate): successfully treated | group outcome of combination therapy ([5]; methylphenidate 40-55 mg/d with Topiramate 12-37.5 mg/d): successfully treated | clinical outcome (case) ([5]; person, ADHD, 25 mg topiramate added to dexamphetamine 30 mg): ability to complete tasks, improvement in cognition | clinical outcome (case) ([5]; person, 25 mg topiramate added to oros extended release methylphenidate): improved organisation, cognition, enhanced interpersonal functioning, and ability to sustain egocentric eye gaze | clinical outcome (case) ([5]; person, topiramate 25 mg added to sodium valproate 300 mg and dexamphetamine 20 mg): Further improvements in interpersonal professional functioning | clinical outcome (case) [13]: significant improvement
